In patent US20100129800A1, “POLYMERS AND THEIR USE AS FLUORESCENT LABELS” (priority 2007, published 2010):
Where two headings read alike, the source gives them in different places.

Key:
[1] = Fluorescence properties of the new compounds (excitation and emission wavelengths); type: physicochemical
[2] = tested on: c-myc promoter region G-quadruplex; conditions: 1 μM ligand, 24 hours, room temperature
Description: (§1) Compounds that bind nucleic acids may show preference for certain sequences. This preference can be used for the detection of specific nucleic acid sequences. One of the methods used to analyse the sequence specificity of DNA-binding compounds is the competition dialysis (c.f. Ren, J. et al., “Sequence and structural selectivity of nucleic acid binding ligands”, Biochemistry, 1999, vol. 38, pp […]). In this method different nucleic acid structures are dialyzed against a common compound solution. […] The amount of compound present in each DNA sequence is measured by fluorescence.
(§2) Furthermore, the inventors analyzed the binding properties of two dimers of the invention, Act-p-Act and Act-p-Qut, in front of several DNA sequences which are known in the state in the art to be biologically-relevant G-quadruplex structures: • 5′- […]-3′, (SEQ ID NO: 1 supra) as thrombin-binding aptamer: G-quadruplex; • 5′- […]-3′ (SEQ ID NO: 2) as a fragment of the promoter region of c-myc oncogen (c.f. Siddiqui-Jain A. et al., “Direct evidence for a G-quadruplex in a promoter region and its targeting with a small molecule to repress c-myc transcription”, Proc. Natl. Acad. Sci. USA, 2002, v. 99, p. […]
(§3) The concentration of the polymer (which is determined by fluorescence spectroscopy) indicates its specificity for a specific sequence: the more higher is the concentration, more specific is for said sequence.

[3] = tested on: human telomere G-quadruplex; conditions: 1 μM ligand, 24 hours, room temperature
Description: as §1, §2, §3

[4] = tested on: parallel triplex (5′-T20-3′-3′-T20-5′+A20); test: Competitive dialysis; type: binding
Description: as §1
(§4) We analysed the sequence specificity of the following polymers of the invention: Aca-p-Aca, QgpQgp(npa), Act-(p-Act)5, Act-p-Qut-p-Agt, Act-p-Qut-p-Act, Act-p-Qut-p-Nct, Qut-p-Qut-p-Qut, Act-p-Qut-p-Qut, and Act-p-Act-p-Act for DNA sequences: • duplex with an alternating CG sequence (5′-CGCGCG-T4-CGCGCG-3′); • duplex with a contiguous CG sequence (5′- CCCGGG-T4-CCCGGG-3′); • duplex with an alternating AT sequence (5′-[…]-T4-[…]); • duplex with a contiguous AT sequence (5′-[…]-T4-[…]); • a parallel triplex (5′-T20-3′-3′-T20-5′+A20); and • a G-quadruplex (thrombin-binding aptamer: 5′-[…]-3′ (SEQ ID NO 1); (c.f. Bock, L. C. et al., “Selection of single-stranded DNA molecules that bind and inhibit human thrombin”, Nature, 1992, vol. 355, pp 564-566).
(§5) Said DNA sequences have been used in order to determine: 1) the affinity of each one of the polymers for a specific tandem of nucleotides (CG, AT, GT); and 2) if the affinity for a specific tandem of nucleotides is affected by its distribution into the sequence (i.e., if the tandem is alternated or contiguous in the sequence).
(§6) The competition dialysis assay was performed placing into a beaker 200 ml of dialysate solution containing 1 μM of ligand in 2 mM sodium phosphate, 2 mM EDTA and 0.185 M NaCl pH 7.0. A volume of 0.1 ml (at 1 mg/ml) of each DNA samples was pipeted into a separate 0.1 ml dialysis unit (Mini Slide-A-lyzer 3.5K, Pierce). The dialysis units were placed in the beaker containing the dialysate solution using a floating device. The contents were allowed to equilibrate with continuous stirring for 24 hours at room temperature. At the end of the equilibration period, DNA samples were carefully removed to eppendorf tubes and were taken to a final concentration of 1% (w/v) sodium dodecyl sulfate (SDS). The concentration of polymer within each dialysis unit was then determined by fluorescence spectroscopy. The free polymer concentration was determined using an aliquot of the dialysate solution as well as with the solution coming from a blank (without DNA) dialysis unit.
as §3

[5] = tested on: duplex with a contiguous CG sequence (5′- CCCGGG-T4-CCCGGG-3′); test: Competitive dialysis; type: binding
Description: as §1, §4, §5, §6, §3

AT rich sequences = test: Competitive dialysis; type: binding
Description: as §1, §4, §5, §6, §3

[6] = tested on: G-quadruplex (thrombin-binding aptamer: 5′-GGTTGGTGTGGTTGG-3′); conditions: 1 μM ligand, 24 hours, room temperature
Description: as §1
(§7) We analysed the sequence specificity of the following polymers of the invention: Aca-p-Aca, QgpQgp(npa), Act-(p-Act)5, Act-p-Qut-p-Agt, Act-p-Qut-p-Act, Act-p-Qut-p-Nct, Qut-p-Qut-p-Qut, Act-p-Qut-p-Qut, and Act-p-Act-p-Act for DNA sequences: • duplex with an alternating CG sequence (5′-CGCGCG-T4-CGCGCG-3′); • duplex with a contiguous CG sequence (5′- CCCGGG-T4-CCCGGG-3′); • duplex with an alternating AT sequence (5′-[…]-T4-[…]); • duplex with a contiguous AT sequence (5′-[…]-T4-[…]); • a parallel triplex (5′-T20-3′-3′-T20-5′+A20); and • a G-quadruplex (thrombin-binding aptamer: 5′-[…]-3′ (SEQ ID NO 1); (c.f. Bock, L. C. et al., “Selection of single-stranded DNA molecules that bind and inhibit human thrombin”, Nature, 1992, vol. 355, pp 564-566). […]

[7] = tested on: duplex with a contiguous AT sequence (5′-AAAATTTT-T4-AAAATTTT); conditions: 1 μM ligand, 24 hours, room temperature
Description: as §1, §7

Row | SMILES | Fluorescence Excitation (nm) ([1]; free compound) | Fluorescence emission (nm) ([1]; free compound) | affinity (concentration of polymer retained, by fluorescence) [2] | affinity (concentration of polymer retained, by fluorescence) [3] | Fluorescence Excitation (nm) [1] | Fluorescence emission (nm) [1] | affinity (concentration of polymer retained, by fluorescence) [4] | affinity (concentration of polymer retained, by fluorescence) [5] | affinity (concentration of polymer retained, by fluorescence) (AT rich sequences) | affinity (concentration of polymer retained, by fluorescence) [6] | affinity (concentration of polymer retained, by fluorescence) [7]
1 | CC(O)C(COP(=O)(O)OC(C)C(CO)NC(=O)c1c2ccccc2nc2ccccc12)NC(=O)c1c2ccccc2nc2c1[nH]c1ccccc12 (stereo not shown) [Example 27, O-{2-N-(Acridine-9-carbamoyl)-(1-hydroxybut-3-yl)} and O-{2-N-(10H-indolo[3,2-d]quinoline-11-carbamoyl)-3-hydroxybut-1-yl) phosphate] | 358 nm | 438 nm | very high affinity | very high affinity | – | – | – | – | – | – | –
2 | CC(O)C(COP(=O)(O)OC(C)C(COP(=O)(O)OC(C)C(CO)NC(=O)c1c2ccccc2nc2ccccc12)NC(=O)c1c2ccccc2nc2c1[nH]c1ccccc12)NC(=O)c1c2ccccc2nc2ccccc12 (stereo not shown) [Example 44, O-{2-N-(Acridine-9-carbamoyl)-(1-hydroxybut-3-yl)} phosphate (3-1) O-{2-N-(10H-indolo[3,2-d]quinoline-11-carbamoyl)-3-oxybut-1-yl} phosphate (3-1) O-{2-N-(acridine-9-carbamoyl)-(3-hydroxybut-1-yl)}] | – | – | – | – | 359 nm | 438 nm | higher affinity | higher affinity | higher affinity | – | –
3 | CC(=O)NCCN(CC(=O)NCCN(CC(=O)NCCCCCCO)C(=O)CNC(=O)c1c2ccccc2nc2c1[nH]c1ccccc12)C(=O)CNC(=O)c1c2ccccc2nc2c1[nH]c1ccccc12 [Example 48] | 349 nm | 495 nm | – | – | – | – | – | – | – | high affinity | high affinity
